# In publication PMC11579512, “Deoxybouvardin-glucoside induces apoptosis in non-small cell lung cancer cells by targeting EGFR/MET and AKT signaling pathway” (EXCLI Journal, 2024):
# Experiments:
# HCC827 cells = assay: Cell cycle distribution (Muse, PI), HCC827; type: cell-based, human; conditions: 48 h
# Method: (§1) HaCaT cells were grown in DMEM, whereas HCC827 and HCC827GR cells were grown in RPMI 1640. All culture media were supplemented with FBS (10 %) and P/S (1 %), and the cells were grown at 37 °C in 5 % CO2.
# Cell cycle distribution analysis was performed using a Muse™ Cell Cycle Kit (MCH100106, Merck Millipore, Billerica, MA) based on propidium iodide (PI) staining. The cells were collected, fixed in 70 % ethanol overnight at -20 °C, and then stained with a Muse™ Cell Cycle Reagent at RT for 30 min in the dark. The cell cycle distribution was measured using a Muse™ Cell Analyzer (Merck Millipore).
# p-EGFR = assay: Immunoblot p-EGFR with NAC pretreatment, HCC827 and HCC827GR cells; type: cell-based, human; conditions: for p-EGFR protein Ratio: control = 1.00
# Method: as §1
# (§2) Cells were lysed in RIPA buffer, and protein concentration was determined using a Bio-Rad DC Protein Assay kit (Bio-Rad, Hercules, CA, USA). Protein samples from the cell lysates were resolved by sodium dodecyl sulfate-polyacrylamide gel electrophoresis and then transferred onto polyvinylidene fluoride membranes. The membranes were blocked with 3 % or 5 % skim milk and then incubated at 4 °C overnight with the indicated primary antibodies, followed by the corresponding horseradish peroxidase-conjugated secondary antibodies at RT for 2 h. Protein bands were visualized using western blotting luminol reagent solution and ImageQuant LAS 500 (GE Healthcare, Uppsala, Sweden). The density of the bands was quantified using ImageJ software (NIH, Bethesda, MD, USA).
# AKT2 = molecular target: T1, AKT2 (Homo sapiens, UniProt P31751); assay: In vitro ADP-Glo kinase assay, AKT2; type: biochemical
# T1 construct: purchased Promega
# T1 sequence (P31751 whole entry): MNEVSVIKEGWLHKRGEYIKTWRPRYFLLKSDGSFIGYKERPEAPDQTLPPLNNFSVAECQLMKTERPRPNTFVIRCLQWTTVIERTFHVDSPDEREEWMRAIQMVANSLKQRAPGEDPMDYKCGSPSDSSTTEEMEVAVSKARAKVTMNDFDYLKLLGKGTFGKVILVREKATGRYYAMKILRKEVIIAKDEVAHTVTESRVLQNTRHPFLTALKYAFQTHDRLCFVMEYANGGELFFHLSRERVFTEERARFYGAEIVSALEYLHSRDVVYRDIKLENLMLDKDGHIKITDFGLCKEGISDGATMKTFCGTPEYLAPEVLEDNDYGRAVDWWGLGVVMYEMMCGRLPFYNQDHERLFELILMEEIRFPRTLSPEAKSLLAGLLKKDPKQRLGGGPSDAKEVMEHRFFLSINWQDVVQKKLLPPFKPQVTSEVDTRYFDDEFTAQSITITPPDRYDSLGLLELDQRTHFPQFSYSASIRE
# Method: (§3) Subsequently, each well was added with ADP-Glo reagent and incubated for another 40 min. After completion of the kinase reaction, each well was added with kinase activity detection reagent and then incubated for 30 min. Liquid was dispensed with I.DOT (Dispendix, Stuttgart, Germany). Luminescence was measured on a Centro LB 960 microplate luminometer (Berthold Technologies).
# CDK4 = assay: Immunoblot CDK4 in HCC827 and HCC827GR cells; type: cell-based, human; conditions: for CDK4 protein ratio: relative to DBG 0 nM = 1.00
# Method: as §1, §2
# AKT1 = molecular target: T2, AKT1 (Homo sapiens, UniProt P31749); assay: In vitro ADP-Glo kinase assay, AKT1; type: biochemical
# T2 construct: purchased Promega
# T2 sequence (P31749 whole entry): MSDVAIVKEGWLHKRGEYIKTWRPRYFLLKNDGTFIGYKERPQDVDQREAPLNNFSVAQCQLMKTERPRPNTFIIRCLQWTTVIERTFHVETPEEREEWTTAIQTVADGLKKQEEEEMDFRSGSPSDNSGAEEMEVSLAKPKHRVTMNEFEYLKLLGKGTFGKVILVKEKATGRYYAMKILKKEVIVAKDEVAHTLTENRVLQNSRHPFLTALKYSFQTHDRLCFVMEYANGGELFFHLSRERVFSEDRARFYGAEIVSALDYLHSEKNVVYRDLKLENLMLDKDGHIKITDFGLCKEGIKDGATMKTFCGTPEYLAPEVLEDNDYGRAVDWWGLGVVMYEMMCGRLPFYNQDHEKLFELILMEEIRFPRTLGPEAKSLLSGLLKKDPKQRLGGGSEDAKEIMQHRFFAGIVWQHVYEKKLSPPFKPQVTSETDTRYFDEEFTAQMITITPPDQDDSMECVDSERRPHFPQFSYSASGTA
# Method: as §3
# caspase-3 = assay: Immunoblot caspase-3 in HCC827 and HCC827GR cells; type: cell-based, human; conditions: for caspase3 protein Ratio: DBG 0 nM = 1.00
# Method: as §1, §2
# p-MET (Y1234/1235) = assay: Western blot p-MET (Y1234/1235) in HCC827 and HCC827GR cells; type: cell-based, human; conditions: DBG 3, 6, 12 nM, 48 h
# Method: as §1, §2
# Bcl-2 = assay: Immunoblot Bcl-2 in HCC827 and HCC827GR cells; type: cell-based, human; conditions: for BCl-2 protein Ratio: DBG 0 nM = 1.00
# Method: as §1, §2
smiles,measurement,setting,value
"COc1ccc(C[C@H]2C(=O)N[C@@H](C)C(=O)N(C)[C@H]3Cc4ccc(cc4)Oc4cc(ccc4O[C@@H]4O[C@H](CO)[C@@H](O)[C@H](O)[C@H]4O)C[C@@H](C(=O)N[C@H](C)C(=O)N[C@@H](C)C(=O)N2C)N(C)C3=O)cc1 [DBG, deoxybouvardin glucoside]",G0/G1 distribution,"HCC827 cells; DBG 3 nM, mean of 3 samples",61.33
same,G2/M distribution,"HCC827 cells; DBG 3 nM, mean of 3 samples",31.20
same,S distribution,"HCC827 cells; DBG 3 nM, mean of 3 samples",7.47
same,G0/G1 distribution,"HCC827 cells; DBG 3 nM, sample 1",60.80
same,G2/M distribution,"HCC827 cells; DBG 3 nM, sample 1",31.60
same,S distribution,"HCC827 cells; DBG 3 nM, sample 1",7.60
same,G0/G1 distribution,"HCC827 cells; DBG 3 nM, sample 2",61.70
same,G2/M distribution,"HCC827 cells; DBG 3 nM, sample 2",31.40
same,S distribution,"HCC827 cells; DBG 3 nM, sample 2",6.90
same,G0/G1 distribution,"HCC827 cells; DBG 3 nM, sample 3",61.50
same,G2/M distribution,"HCC827 cells; DBG 3 nM, sample 3",30.60
same,S distribution,"HCC827 cells; DBG 3 nM, sample 3",7.90
same,G0/G1 distribution,"HCC827 cells; DBG 6 nM, mean of 3 samples",64.27
same,G2/M distribution,"HCC827 cells; DBG 6 nM, mean of 3 samples",28.30
same,S distribution,"HCC827 cells; DBG 6 nM, mean of 3 samples",7.43
same,G0/G1 distribution,"HCC827 cells; DBG 6 nM, sample 1",65.20
same,G2/M distribution,"HCC827 cells; DBG 6 nM, sample 1",27.50
same,S distribution,"HCC827 cells; DBG 6 nM, sample 1",7.30
same,G0/G1 distribution,"HCC827 cells; DBG 6 nM, sample 2",63.60
same,G2/M distribution,"HCC827 cells; DBG 6 nM, sample 2",28.30
same,S distribution,"HCC827 cells; DBG 6 nM, sample 2",8.10
same,G0/G1 distribution,"HCC827 cells; DBG 6 nM, sample 3",64.00
same,G2/M distribution,"HCC827 cells; DBG 6 nM, sample 3",29.10
same,S distribution,"HCC827 cells; DBG 6 nM, sample 3",6.90
same,G0/G1 distribution,"HCC827 cells; DBG 12 nM, mean of 3 samples",74.37
same,G2/M distribution,"HCC827 cells; DBG 12 nM, mean of 3 samples",19.80
same,S distribution,"HCC827 cells; DBG 12 nM, mean of 3 samples",5.83
same,G0/G1 distribution,"HCC827 cells; DBG 12 nM, sample 1",73.00
same,G2/M distribution,"HCC827 cells; DBG 12 nM, sample 1",21.00
same,S distribution,"HCC827 cells; DBG 12 nM, sample 1",6.00
same,G0/G1 distribution,"HCC827 cells; DBG 12 nM, sample 2",75.10
same,G2/M distribution,"HCC827 cells; DBG 12 nM, sample 2",19.40
same,S distribution,"HCC827 cells; DBG 12 nM, sample 2",5.50
same,G0/G1 distribution,"HCC827 cells; DBG 12 nM, sample 3",75.00
same,G2/M distribution,"HCC827 cells; DBG 12 nM, sample 3",19.00
same,S distribution,"HCC827 cells; DBG 12 nM, sample 3",6.00
same,p-EGFR protein/actin,"p-EGFR; HCC827, DBG 12 nM, control 0.90",0.25
same,p-EGFR protein Ratio,"p-EGFR; HCC827, DBG 12 nM",0.27
same,p-EGFR protein/actin,"p-EGFR; HCC827, NAC 4 mM + DBG 12 nM, control 0.90",0.27
same,p-EGFR protein Ratio,"p-EGFR; HCC827, NAC 4 mM + DBG 12 nM",0.30
same,p-EGFR protein/actin,"p-EGFR; HCC827GR, DBG 12 nM, control 0.93",0.40
same,p-EGFR protein Ratio,"p-EGFR; HCC827GR, DBG 12 nM",0.43
same,p-EGFR protein/actin,"p-EGFR; HCC827GR, NAC 4 mM + DBG 12 nM, control 0.93",0.30
same,p-EGFR protein Ratio,"p-EGFR; HCC827GR, NAC 4 mM + DBG 12 nM",0.32
same,DBG-decreased phosphorylation of EGFR with NAC,"p-EGFR; NAC 4 mM pretreatment, DBG 48 h",did not change
same,IC50,"AKT2; ADP-Glo, AKT2 5 ng, RT, 60 min, luminescence, n=3",11.2 nM
same,"kinase activity, in words","AKT2; DBG 3, 6, 12 nM",significantly inhibited
same,level of CDKs (CDK4),"CDK4; DBG 3, 6, 12 nM, 48 h",significantly decreased
same,CDK4 protein/actin,"CDK4; HCC827, DBG 3 nM, DBG 0 nM 0.59",0.35
same,CDK4 protein ratio,"CDK4; HCC827, DBG 3 nM",0.58
same,CDK4 protein/actin,"CDK4; HCC827, DBG 6 nM, DBG 0 nM 0.59",0.30
same,CDK4 protein ratio,"CDK4; HCC827, DBG 6 nM",0.50
same,CDK4 protein/actin,"CDK4; HCC827, DBG 12 nM, DBG 0 nM 0.59",0.32
same,CDK4 protein ratio,"CDK4; HCC827, DBG 12 nM",0.53
same,CDK4 protein/actin,"CDK4; HCC827GR, DBG 3 nM, DBG 0 nM 0.72",0.61
same,CDK4 protein ratio,"CDK4; HCC827GR, DBG 3 nM",0.85
same,CDK4 protein/actin,"CDK4; HCC827GR, DBG 6 nM, DBG 0 nM 0.72",0.55
same,CDK4 protein ratio,"CDK4; HCC827GR, DBG 6 nM",0.77
same,CDK4 protein/actin,"CDK4; HCC827GR, DBG 12 nM, DBG 0 nM 0.72",0.30
same,CDK4 protein ratio,"CDK4; HCC827GR, DBG 12 nM",0.42
same,IC50,"AKT1; ADP-Glo, AKT1 10 ng, RT, 60 min, luminescence, n=3",6.86 nM
same,"kinase activity, in words","AKT1; DBG 3, 6, 12 nM",significantly inhibited
same,caspase3 protein/actin,"caspase-3; HCC827, DBG 3 nM, DBG 0 nM 0.88",0.62
same,caspase3 protein Ratio,"caspase-3; HCC827, DBG 3 nM",0.71
same,caspase3 protein/actin,"caspase-3; HCC827, DBG 6 nM, DBG 0 nM 0.88",0.55
same,caspase3 protein Ratio,"caspase-3; HCC827, DBG 6 nM",0.62
same,caspase3 protein/actin,"caspase-3; HCC827, DBG 12 nM, DBG 0 nM 0.88",0.14
same,caspase3 protein Ratio,"caspase-3; HCC827, DBG 12 nM",0.16
same,caspase3 protein/actin,"caspase-3; HCC827GR, DBG 3 nM, DBG 0 nM 0.55",0.60
same,caspase3 protein Ratio,"caspase-3; HCC827GR, DBG 3 nM",1.11
same,caspase3 protein/actin,"caspase-3; HCC827GR, DBG 6 nM, DBG 0 nM 0.55",0.48
same,caspase3 protein Ratio,"caspase-3; HCC827GR, DBG 6 nM",0.87
same,caspase3 protein/actin,"caspase-3; HCC827GR, DBG 12 nM, DBG 0 nM 0.55",0.30
same,caspase3 protein Ratio,"caspase-3; HCC827GR, DBG 12 nM",0.54
same,level of whole caspase-3,"caspase-3; HCC827 and HCC827GR, DBG",decreased
same,phosphorylation level of MET,p-MET (Y1234/1235),decreased
same,BCl-2 protein/actin,"Bcl-2; HCC827, DBG 3 nM, DBG 0 nM 0.55",0.30
same,BCl-2 protein Ratio,"Bcl-2; HCC827, DBG 3 nM",0.55
same,BCl-2 protein/actin,"Bcl-2; HCC827, DBG 6 nM, DBG 0 nM 0.55",0.21
same,BCl-2 protein Ratio,"Bcl-2; HCC827, DBG 6 nM",0.39
same,BCl-2 protein/actin,"Bcl-2; HCC827, DBG 12 nM, DBG 0 nM 0.55",0.19
same,BCl-2 protein Ratio,"Bcl-2; HCC827, DBG 12 nM",0.36
same,BCl-2 protein/actin,"Bcl-2; HCC827GR, DBG 3 nM, DBG 0 nM 0.66",0.59
same,BCl-2 protein Ratio,"Bcl-2; HCC827GR, DBG 3 nM",0.89
same,BCl-2 protein/actin,"Bcl-2; HCC827GR, DBG 6 nM, DBG 0 nM 0.66",0.47
same,BCl-2 protein Ratio,"Bcl-2; HCC827GR, DBG 6 nM",0.70
same,BCl-2 protein/actin,"Bcl-2; HCC827GR, DBG 12 nM, DBG 0 nM 0.66",0.19
same,BCl-2 protein Ratio,"Bcl-2; HCC827GR, DBG 12 nM",0.29
same,level of Bcl-2,"Bcl-2; NSCLC cells, DBG",downregulated
